pIC50: −log10 of the molar value.
Key:
hERG channel = target: T1, hERG channel (Homo sapiens, UniProt Q12809); assay: Cardiotoxicity fluorescence-based assay, hERG channel; assay type: cell-based; conditions: HEK293 cells
T1 construct: expressed in transfected cells; host or cells: HEK293
Description: Fluorescence-based assays were performed using HEK293 cell lines that stably express the Nav1.5-channel, Cav1.2-channel or hERG K+-channel, using FMP Red Dye (Molecular Devices), calcium-sensitive fluorescent dye Fluo-4 (Invitrogen) and FIuxOR™ reagent (Invitrogen), respectively, and a FLIPR Tetra High-Throughput Cellular Screening System (Molecular Devices), according to manufacturer's protocols (Molecular Devices). Tetrodotoxin (TTX), israpidine and nicarpidine, and astemizole and haloperidol were used as standard sodium channel, calcium channel, and hERG channel blockers. Data were analyzed using Genedata Screener.

[1] = tested on: PTZ-induced seizures in zebrafish larvae; assay: Zebrafish PTZ seizure model, behavioral analysis; assay type: in vivo, Danio rerio; conditions: for PTZ-induced seizures (seizure-like behavior): vs VHC+PTZ
Description: To investigate whether the isolated compounds display antiseizure activity, they were tested in the zebrafish PTZ seizure model after both an acute (2 hours) and chronic (18 hours) incubation time at their maximum tolerated concentration (MTC) (Table 1, FIG. 1).
(§1) In case no MTC was reached, 100 μg/mL was used as the test concentration. In line with studies previously reported [Baraban et al. (2005) Neurosci 131, 759-768; Afrikanova et al. (2013) PLoS One 8, e54166], addition of the GABAA-receptor antagonist PTZ to the swimming water of 7 days post-fertilization (dpf) zebrafish larvae strongly elevated larval locomotion (p≤0.001) (FIGS. 2 and 3) as a result of induced seizures (or seizure-like behavior) that were recognized as typical high-speed swimming, whirlpool-like circling, clonus-like seizures, and loss of posture, as previously described in Baraban et al cited above.
Experimental procedure was described in Afrikanova et al.(2013) PLoS One 8, e54166 and Orellana-Paucar et al. (2012) Epilepsy Behav 24, 14-22. In brief, a single 7 dpf larva (in case of 2 hours incubation) or 6 dpf larva (in case of 18 hours incubation) was placed in each well of a 96-well plate and treated with either VHC (1% DMSO) or compound (1% DMSO) in a 100 μL volume. Larvae were incubated in dark for 2 or 18 hours at 28° C., whereafter 100 μL of either VHC (embryo medium) or 40 mM PTZ (dissolved in embryo medium, 20 mM working concentration) was added to each well. Next, within 5 min the 96-well plate was placed in an automated tracking device (ZebraBox Viewpoint, France) and larval behavior was video recorded for 30 min. The complete procedure was performed in dark conditions using infrared light. Total locomotor activity was recorded by ZebraLab software (Viewpoint, France) and expressed in actinteg units, which is the sum of pixel changes detected during the defined time interval (5 min). Larval behavior was depicted as mean actinteg units/5 min during the 30 min recording period and over 5 min time intervals. Data are expressed as mean±SD or as mean ±SEM when the means of independent experiments were pooled.

zebrafish larvae = assay: Zebrafish toxicity evaluation (maximum tolerated concentration); assay type: in vivo, Danio rerio; conditions: up to 18 hours exposure, 100 μg/mL used where no MTC was reached
Description: as §1
Maximum tolerated concentration (MTC) was determined prior to further experiments and used as the highest test concentration. MTC was investigated by exposing 12 larvae of 6 days post-fertilization (dpf) to a range of concentrations in a 100 μL volume during 18 hours. The following parameters were investigated after 2 and 18 hours of exposure: touch response, morphology, posture, edema, signs of necrosis, swim bladder, and heartbeat. […] In case MTC was not reached, 100 μg/mL was used as the highest test concentration.

THLE2 cells = assay: Cell viability MTT assay, THLE2 cells; assay type: cell-based, human; conditions: 24 h incubation; for pIC50: read-out: Cytotoxicity THLE2 cells IC50
Description: Protocol was based on literature [Patel and Patel. (2011) J. App. Pharm. Sci 1, 167-171]. Three cell lines were used: a) Hep G2 (HB-8065), a well-differentiated human hepatocellular carcinoma cell line, b) THLE-2, human liver epithelial cells transformed with SV40 large T-antigen and c) SHSYSY, a thrice-cloned sub-line of a human metastatic bone tumor. Cells were seeded at a concentration of 1×10^4 cells/well in 200 μL culture medium and incubated at 37° C. in 5% CO2 using 96-well plates for 24 h. Next, the medium was replaced with medium complemented with test compounds. After another 24 h incubation, the medium was replaced by 100 μL of a MTT (3-(4,5-dimethylthiazol-2-yl)-2,5-diphenyltetrazolium bromide) solution (5 mg/mL in PBS and diluted at 0.5 mg/mL in MEM without phenol red). The plates were gently shaken and incubated for 3 hours at 37° C. in a 5% CO2 incubator. The supernatant was removed and 100 μL of 100% DMSO was added. The plates were gently shaken to solubilize the formed formazan. The absorbance was measured using a multireader (Victor2 (Wallac)) at a wavelength of 570 nm.

[2] = Parallel artificial membrane permeability assay (PAMPA); assay type: in vitro ADME; conditions: for Permeability: 10 μM, 5 h, RT
Description: The Gentest Pre-coated PAMPA Plate System (Corning) was used to perform the permeability assays. The 96 well filter plate, pre-coated with lipids, was used as the permeation acceptor and a matching 96 well receiver plate was used as the permeation donor. Compound solutions were prepared by diluting 10 mM DMSO stock solutions in PBS with a final concentration at 10 μM. The compound solutions were added to the wells (300 μL/well) of the receiver plate and PBS was added to the wells (200 μL/well) of the pre-coated filter plate. The filter plate was then coupled with the receiver plate and the plate assembly was incubated at RT without agitation for 5 h. Next, the plates were separated and 50 μL solution from each well of both the filter plate and the receiver plate was transferred to a vial with 150 μL acetonitrile and centrifuged at 13300 rpm for 10 min at 4° C. The supernatant was diluted in a solution water/acetonitrile (50/50). The final concentration of compounds in both donor wells and acceptor wells was analyzed by LC-MS/MS. Permeability of the compounds was calculated using the following equation:
Permeability (cm/s): Pe={−ln[1−CA(t)/Ceq]}/[A*(1/VD+1/VA)*t]}
A=filter area (0.3 cm2), VD=donor well volume (0.3 mL), VA=acceptor well volume (0.2 mL), t=incubation time (s), CA(t)=compound concentration in acceptor well at time t, CD(t)=compound concentration in donor well at time t, and Ceq=[CD(t)*VD+CA(t)*VA]/(VD+VA)]

T1 sequence (Q12809 whole entry): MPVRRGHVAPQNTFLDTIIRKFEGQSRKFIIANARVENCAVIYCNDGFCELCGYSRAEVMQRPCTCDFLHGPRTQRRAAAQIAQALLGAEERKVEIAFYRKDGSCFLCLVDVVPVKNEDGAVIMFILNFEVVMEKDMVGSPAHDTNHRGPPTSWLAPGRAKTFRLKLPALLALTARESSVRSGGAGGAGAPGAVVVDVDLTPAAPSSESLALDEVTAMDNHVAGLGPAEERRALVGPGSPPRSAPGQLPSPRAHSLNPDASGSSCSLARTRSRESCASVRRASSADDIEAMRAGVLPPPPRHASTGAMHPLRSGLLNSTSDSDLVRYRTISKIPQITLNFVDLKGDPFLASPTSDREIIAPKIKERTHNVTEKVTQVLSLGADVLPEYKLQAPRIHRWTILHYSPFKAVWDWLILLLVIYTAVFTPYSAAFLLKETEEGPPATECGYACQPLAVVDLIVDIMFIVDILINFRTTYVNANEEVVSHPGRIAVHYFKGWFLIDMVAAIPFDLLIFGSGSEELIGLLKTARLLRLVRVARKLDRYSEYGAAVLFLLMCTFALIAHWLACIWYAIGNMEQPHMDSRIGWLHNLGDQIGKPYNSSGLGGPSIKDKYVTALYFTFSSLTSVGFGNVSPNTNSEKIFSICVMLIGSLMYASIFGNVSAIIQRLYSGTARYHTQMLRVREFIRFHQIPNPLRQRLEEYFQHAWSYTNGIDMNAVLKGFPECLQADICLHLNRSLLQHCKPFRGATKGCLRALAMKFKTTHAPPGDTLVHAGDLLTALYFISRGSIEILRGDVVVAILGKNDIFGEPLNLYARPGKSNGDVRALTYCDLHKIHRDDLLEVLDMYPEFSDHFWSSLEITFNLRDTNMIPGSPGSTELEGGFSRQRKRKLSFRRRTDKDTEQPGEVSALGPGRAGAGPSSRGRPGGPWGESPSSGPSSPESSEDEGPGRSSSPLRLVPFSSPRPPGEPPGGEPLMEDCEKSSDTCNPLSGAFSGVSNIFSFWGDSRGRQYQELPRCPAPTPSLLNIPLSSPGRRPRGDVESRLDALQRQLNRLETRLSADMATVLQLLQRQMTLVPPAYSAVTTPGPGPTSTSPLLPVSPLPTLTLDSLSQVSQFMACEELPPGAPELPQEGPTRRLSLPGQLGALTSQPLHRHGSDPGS

Structure (SMILES) | Cardiotoxicity hERG channel, effect (hERG channel) | pIC50 (hERG channel) | PTZ-induced seizure behavior, concentration-response retest ([1]; at MTC, 2 hours incubation, 30 min recording, three independent experiments) | PTZ-induced seizures (seizure-like behavior) ([1]; at MTC, 2 hours of compound exposure) | MTC (maximum tolerated concentration) (zebrafish larvae) [µg/mL] | Cytotoxicity THLE2 cells, effect (THLE2 cells) | pIC50 (THLE2 cells) | Permeability, rating [2] | Permeability [2] [nm/s] | PTZ-induced seizure behavior, concentration-response retest ([1]; MTC, MTC/2, MTC/4, optimal incubation time, 30 min recording and 5 min intervals) | PTZ-induced seizures (seizure-like behavior) ([1]; at MTC, 18 hours of compound exposure)
CCc1ccc(C2=C(C)C(=O)C3(O2)C(=O)NC(OC)(C(=O)c2ccccc2)C3O)o1 (stereo not drawn) [azaspirofuran A] | No effect | < 4.30 | lowered PTZ-induced seizure behavior to the same extent as before | significantly lowered PTZ-induced seizures | 12.5 | Weak | < 4.30 | High | 186.4 |  | 
CC/C=C\[C@H](O)[C@H](O)C1=C(C)C(=O)[C@]2(O1)C(=O)N[C@](OC)(C(=O)c1ccccc1)[C@H]2O [pseurotin A2] | No effect | < 4.30 |  |  | 12.5 | Weak | < 4.30 | Low | 0.5 | concentration-dependent activity | significantly lowered PTZ-induced seizures

Reference: US20200253929A1, “TREATMENT OF EPILEPSY” (priority 2017, published 2020)
